Assay results taken from PubChem BioAssay AID2415 (Johns Hopkins Ion Channel Center, 2010).

How the values were obtained:
Experiment in all cases: potentiation across KCNQ channel subtypes – cell-based, manual patch clamp, mode of action, selectivity assay for KCNQ2 potentiator project, late-stage follow-up (AID 2415)
[1] = target: Potassium voltage-gated channel subfamily KQT member 1 (Homo sapiens) (UniProt P51787); conditions: KCNQ channels in transfected CHO cells, manual whole-cell patch clamp current, at 10 µM
[2] = target: Potassium voltage-gated channel subfamily KQT member 2 (Rattus norvegicus) (UniProt O88943); conditions: KCNQ channels in transfected CHO cells, manual whole-cell patch clamp current; measured here: KCNQ2 current ratio; at 10 µM; stronger effect = higher value
[3] = target: Potassium voltage-gated channel subfamily KQT member 3 (Rattus norvegicus) (UniProt O88944); conditions: KCNQ channels in transfected CHO cells, manual whole-cell patch clamp current; measured here: KCNQ3 current ratio; at 10 µM; stronger effect = higher value
[4] = target: Potassium voltage-gated channel subfamily KQT member 4 (Homo sapiens) (UniProt P56696); conditions: KCNQ channels in transfected CHO cells, manual whole-cell patch clamp current; measured here: KCNQ4 current ratio; at 10 µM; stronger effect = higher value
[5] = target: Potassium voltage-gated channel subfamily KQT member 5 (Homo sapiens) (UniProt Q9NR82); conditions: KCNQ channels in transfected CHO cells, manual whole-cell patch clamp current; measured here: KCNQ5 current ratio; at 10 µM; stronger effect = higher value
Chain of Potassium voltage-gated channel subfamily KQT member 5 (Homo sapiens) (Q9NR82 whole entry, looked up): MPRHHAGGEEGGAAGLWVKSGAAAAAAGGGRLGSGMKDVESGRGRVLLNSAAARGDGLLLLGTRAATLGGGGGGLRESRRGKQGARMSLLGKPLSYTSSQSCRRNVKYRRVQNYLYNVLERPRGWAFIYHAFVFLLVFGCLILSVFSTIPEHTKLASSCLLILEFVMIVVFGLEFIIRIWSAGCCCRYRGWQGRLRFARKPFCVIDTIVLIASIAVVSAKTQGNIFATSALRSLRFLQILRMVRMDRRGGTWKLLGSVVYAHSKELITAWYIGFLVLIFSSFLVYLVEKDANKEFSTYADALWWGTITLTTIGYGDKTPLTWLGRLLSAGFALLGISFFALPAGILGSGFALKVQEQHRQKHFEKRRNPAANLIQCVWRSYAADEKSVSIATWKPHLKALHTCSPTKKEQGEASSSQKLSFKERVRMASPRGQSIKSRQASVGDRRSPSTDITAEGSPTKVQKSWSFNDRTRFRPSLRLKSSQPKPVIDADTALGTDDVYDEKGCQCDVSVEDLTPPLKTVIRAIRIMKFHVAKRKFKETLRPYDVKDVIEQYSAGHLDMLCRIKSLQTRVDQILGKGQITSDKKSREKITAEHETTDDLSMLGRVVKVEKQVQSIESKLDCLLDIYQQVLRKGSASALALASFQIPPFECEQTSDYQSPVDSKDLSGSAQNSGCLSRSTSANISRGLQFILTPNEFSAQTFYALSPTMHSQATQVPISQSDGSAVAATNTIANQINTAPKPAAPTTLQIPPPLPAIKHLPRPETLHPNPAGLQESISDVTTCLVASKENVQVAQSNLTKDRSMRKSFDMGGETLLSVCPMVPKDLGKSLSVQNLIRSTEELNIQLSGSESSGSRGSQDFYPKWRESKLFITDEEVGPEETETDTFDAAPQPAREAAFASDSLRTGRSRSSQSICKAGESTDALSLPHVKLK

Chain of Potassium voltage-gated channel subfamily KQT member 1 (Homo sapiens) (P51787 whole entry, looked up): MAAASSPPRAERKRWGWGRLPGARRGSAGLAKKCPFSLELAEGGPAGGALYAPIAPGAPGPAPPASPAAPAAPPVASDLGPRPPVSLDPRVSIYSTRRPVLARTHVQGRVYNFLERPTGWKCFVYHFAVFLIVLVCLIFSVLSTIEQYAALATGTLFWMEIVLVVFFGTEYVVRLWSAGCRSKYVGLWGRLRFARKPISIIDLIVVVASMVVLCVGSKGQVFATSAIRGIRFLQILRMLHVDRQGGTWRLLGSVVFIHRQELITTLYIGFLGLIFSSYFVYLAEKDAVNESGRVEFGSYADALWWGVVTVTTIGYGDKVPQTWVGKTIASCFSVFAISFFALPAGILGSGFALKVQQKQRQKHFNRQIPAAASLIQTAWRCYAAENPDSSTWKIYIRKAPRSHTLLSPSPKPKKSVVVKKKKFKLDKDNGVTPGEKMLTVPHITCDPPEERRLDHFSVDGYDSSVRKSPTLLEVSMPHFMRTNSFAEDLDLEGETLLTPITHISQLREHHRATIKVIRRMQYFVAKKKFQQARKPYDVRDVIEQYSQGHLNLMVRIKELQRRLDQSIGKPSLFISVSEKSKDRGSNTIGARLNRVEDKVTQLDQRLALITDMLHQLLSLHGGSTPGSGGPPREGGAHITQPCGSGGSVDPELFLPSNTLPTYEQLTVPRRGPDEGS
Chain of Potassium voltage-gated channel subfamily KQT member 2 (Rattus norvegicus) (O88943 whole entry, looked up): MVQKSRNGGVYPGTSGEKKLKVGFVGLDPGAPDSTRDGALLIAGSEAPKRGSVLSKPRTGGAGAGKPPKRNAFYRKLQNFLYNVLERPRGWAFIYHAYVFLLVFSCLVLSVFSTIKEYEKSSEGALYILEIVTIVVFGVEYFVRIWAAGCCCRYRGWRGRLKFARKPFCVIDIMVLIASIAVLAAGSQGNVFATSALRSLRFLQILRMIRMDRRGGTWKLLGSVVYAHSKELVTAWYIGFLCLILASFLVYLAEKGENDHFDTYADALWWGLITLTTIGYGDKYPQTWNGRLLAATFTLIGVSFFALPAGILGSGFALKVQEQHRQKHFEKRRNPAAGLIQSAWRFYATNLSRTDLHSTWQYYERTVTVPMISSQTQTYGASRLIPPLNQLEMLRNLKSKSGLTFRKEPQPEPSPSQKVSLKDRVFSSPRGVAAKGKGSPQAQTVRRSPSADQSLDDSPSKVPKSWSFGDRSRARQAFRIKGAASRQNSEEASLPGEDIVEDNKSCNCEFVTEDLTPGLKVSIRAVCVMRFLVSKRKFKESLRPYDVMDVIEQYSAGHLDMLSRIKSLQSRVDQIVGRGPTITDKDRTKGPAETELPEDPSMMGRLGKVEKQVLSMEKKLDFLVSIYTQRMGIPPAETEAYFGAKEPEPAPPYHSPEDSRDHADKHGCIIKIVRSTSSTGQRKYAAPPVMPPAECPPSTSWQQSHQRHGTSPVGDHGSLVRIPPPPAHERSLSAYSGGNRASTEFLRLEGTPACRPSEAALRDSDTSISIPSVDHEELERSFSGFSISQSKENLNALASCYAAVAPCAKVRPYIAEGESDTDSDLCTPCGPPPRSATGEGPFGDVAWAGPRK
Chain of Potassium voltage-gated channel subfamily KQT member 3 (Rattus norvegicus) (O88944 whole entry, looked up): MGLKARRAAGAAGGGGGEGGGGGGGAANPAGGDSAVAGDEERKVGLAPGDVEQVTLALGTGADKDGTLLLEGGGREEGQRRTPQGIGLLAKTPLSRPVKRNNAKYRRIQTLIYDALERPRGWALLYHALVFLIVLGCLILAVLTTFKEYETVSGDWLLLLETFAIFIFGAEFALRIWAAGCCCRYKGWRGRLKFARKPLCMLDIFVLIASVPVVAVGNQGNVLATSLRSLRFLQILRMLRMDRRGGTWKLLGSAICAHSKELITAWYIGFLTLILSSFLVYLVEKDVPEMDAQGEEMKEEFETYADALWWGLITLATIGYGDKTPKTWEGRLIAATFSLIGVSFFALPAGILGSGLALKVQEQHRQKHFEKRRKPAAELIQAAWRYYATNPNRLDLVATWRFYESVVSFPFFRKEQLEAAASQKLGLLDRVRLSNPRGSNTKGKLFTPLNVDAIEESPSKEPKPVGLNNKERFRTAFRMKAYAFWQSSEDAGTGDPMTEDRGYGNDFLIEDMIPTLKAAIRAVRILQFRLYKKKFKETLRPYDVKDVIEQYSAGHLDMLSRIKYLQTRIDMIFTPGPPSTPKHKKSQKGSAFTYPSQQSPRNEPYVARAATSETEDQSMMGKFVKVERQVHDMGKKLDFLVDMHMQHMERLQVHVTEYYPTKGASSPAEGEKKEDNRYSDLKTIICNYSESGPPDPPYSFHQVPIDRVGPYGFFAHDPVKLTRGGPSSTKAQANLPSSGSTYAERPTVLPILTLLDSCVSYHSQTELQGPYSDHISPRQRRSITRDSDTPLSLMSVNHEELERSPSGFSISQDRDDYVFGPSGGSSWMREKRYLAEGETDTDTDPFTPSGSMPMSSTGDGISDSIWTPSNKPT
Chain of Potassium voltage-gated channel subfamily KQT member 4 (Homo sapiens) (P56696 whole entry, looked up): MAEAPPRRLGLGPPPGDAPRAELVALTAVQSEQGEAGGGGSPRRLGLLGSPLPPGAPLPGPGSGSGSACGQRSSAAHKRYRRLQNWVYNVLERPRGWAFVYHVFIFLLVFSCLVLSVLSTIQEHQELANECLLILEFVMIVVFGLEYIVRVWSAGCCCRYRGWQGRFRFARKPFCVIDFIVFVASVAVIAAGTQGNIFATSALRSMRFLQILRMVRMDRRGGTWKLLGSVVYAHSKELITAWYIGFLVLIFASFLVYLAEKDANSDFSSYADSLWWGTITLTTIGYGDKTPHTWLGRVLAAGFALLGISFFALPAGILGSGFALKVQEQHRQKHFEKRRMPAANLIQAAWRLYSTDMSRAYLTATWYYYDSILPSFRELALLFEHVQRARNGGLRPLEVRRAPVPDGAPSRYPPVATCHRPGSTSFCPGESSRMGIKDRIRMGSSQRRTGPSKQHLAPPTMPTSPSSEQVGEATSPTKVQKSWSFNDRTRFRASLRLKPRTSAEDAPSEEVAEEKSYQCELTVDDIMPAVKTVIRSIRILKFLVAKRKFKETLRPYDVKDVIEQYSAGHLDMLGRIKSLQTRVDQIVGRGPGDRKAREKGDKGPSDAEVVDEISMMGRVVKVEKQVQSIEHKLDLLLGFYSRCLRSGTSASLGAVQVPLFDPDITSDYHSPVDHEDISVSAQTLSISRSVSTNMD

current ratio I/I0 ([1]; stronger effect = higher value): 0.9
deactivation tau ([1]; measured here: KCNQ2 deactivation time constant, stronger effect = higher value): 51.8 ms
V1/2 ([1]; measured here: KCNQ2 half activation voltage, stronger effect = lower value): -16.6 mV
current ratio I/I0 [2]: 1.9
current ratio I/I0 [3]: 1
current ratio I/I0 [4]: 2.4
current ratio I/I0 [5]: 3.5
Compound: O=C(Nc1ccc(Cl)nc1)c1ccc(F)cc1
